Molecular target: T1, human mGlu2 receptor (Homo sapiens, UniProt Q14416)
T1 construct: V5/His (named only as part of the vector); expressed in transfected cells; host or cells: HEK293
Assay: FLIPR intracellular Ca2+ assay, potentiation of 1 μM glutamate in HEK293 cells expressing hmGlu2, rGLAST and Galpha16
Assay type: cell-based
Conditions: HEK293 hmGlu2 clone
Source text: The compounds of the present invention can be tested e.g. by evaluating intracellular Ca^2+ concentrations in cells permanently expressing human mGlu receptor, the rat glutamate transporter rGLAST and the Galpha16 subunit of the G-protein complex under standard conditions in a fluorometric imaging plate reader (FLIPR, Molecular Devices, Union City, Calif. 94587, USA) by measuring the response of the cells to a test compound in the absence of presence of glutamate. The FLIPR assay is a common functional assay to monitor native or recombinant Galphaq-coupled receptors, and native or recombinant receptors normally linked to other G-protein signalling cascades, which are coupled to calcium through co-expression of an alpha subunit of a promiscuous or chimeric G-protein. In the assay the increase of intracellular calcium is measured through a calcium-dependent fluorescent dye (e.g. Fluo-4 AM) in the FLIPR instrument.
For the purpose of the present study, a cell line permanently expressing a human mGlu receptor, such as the mGlu2 receptor, the rat glutamate transporter rGLAST and the GalphaG16 may be generated by transfection as described in the examples. For selection of a suitable cell clone and also the subsequent measurements, the selected clone the cells will be plated on suitable multiwell plates in a suitable medium (e.g. DMEM Glutamax (GIBCO # 21885-025)/10% dialyzed FCS). Cells may be selected by gentamycin treatment as described in the examples. Cells will then be loaded with a suitable Ca^2+ sensitive fluorescence dye, e.g. with 2 μM Fluo-4 AM (Molecular Probes, F14201). Cells will then be washed with a suitable buffer (e.g. HEPES) and the thus treated plates will be measured in a fluorometric imaging plate reader (e.g. FLIPR, Molecular Devices, Union City, Calif. 94587, USA).
The compounds of the present invention were tested in the above-described FLIPR assay using the selected cell clone. Increased intracellular calcium levels were quantified following addition of test compound (agonism), as well as following addition of a submaximal concentration of glutamate (potentiation).
For the determination of the effect of the test compound by itself (agonism) or by increasing the response to a submaximal concentration (e.g. 1 μM) of glutamate (potentiation), the resulting signal is determined by subtraction of the background fluorescence from the maximal fluorescent peak height of the respective response. In the FLIPR instrument the compound is given to the cell and its fluorescence response quantified by the FLIPR instrument (agonism). The concentration at which the compound exerts half its maximal effect is named the ‘effective concentration 50’ or ‘EC50’. The maximal effect induced by the test substance is normalized to the maximal effect exerted by 100 μM glutamate (set at 100%).
After addition of the test compound to the plate, a submaximal concentration of glutamate (e.g. 1 μM glutamate) will be added. A potentiator enhances the response of the receptor to glutamate. The response to glutamate in the presence of test compound is quantified. The concentration at which the test compound is able to exert half its maximal potentiation effect to glutamate is named the ‘EC50’. The maximal response to the submaximal concentration of glutamate (e.g. 1 micromolar glutamate) in the presence of test compound is normalized to the maximal effect exerted by 100 micromolar glutamate (set at 100%). Least squares curve fitting with a four-parameter equation is then applied to the resulting dose-response curve to determine the resulting EC50 values (Graph Pad Prism).
For the purpose of the present study, a cell line permanently expressing the human mGlu2 receptor, the rat glutamate transporter rGLAST and the alpha subunit of G16 was generated by transfection. […]

T1 sequence (Q14416 19-872): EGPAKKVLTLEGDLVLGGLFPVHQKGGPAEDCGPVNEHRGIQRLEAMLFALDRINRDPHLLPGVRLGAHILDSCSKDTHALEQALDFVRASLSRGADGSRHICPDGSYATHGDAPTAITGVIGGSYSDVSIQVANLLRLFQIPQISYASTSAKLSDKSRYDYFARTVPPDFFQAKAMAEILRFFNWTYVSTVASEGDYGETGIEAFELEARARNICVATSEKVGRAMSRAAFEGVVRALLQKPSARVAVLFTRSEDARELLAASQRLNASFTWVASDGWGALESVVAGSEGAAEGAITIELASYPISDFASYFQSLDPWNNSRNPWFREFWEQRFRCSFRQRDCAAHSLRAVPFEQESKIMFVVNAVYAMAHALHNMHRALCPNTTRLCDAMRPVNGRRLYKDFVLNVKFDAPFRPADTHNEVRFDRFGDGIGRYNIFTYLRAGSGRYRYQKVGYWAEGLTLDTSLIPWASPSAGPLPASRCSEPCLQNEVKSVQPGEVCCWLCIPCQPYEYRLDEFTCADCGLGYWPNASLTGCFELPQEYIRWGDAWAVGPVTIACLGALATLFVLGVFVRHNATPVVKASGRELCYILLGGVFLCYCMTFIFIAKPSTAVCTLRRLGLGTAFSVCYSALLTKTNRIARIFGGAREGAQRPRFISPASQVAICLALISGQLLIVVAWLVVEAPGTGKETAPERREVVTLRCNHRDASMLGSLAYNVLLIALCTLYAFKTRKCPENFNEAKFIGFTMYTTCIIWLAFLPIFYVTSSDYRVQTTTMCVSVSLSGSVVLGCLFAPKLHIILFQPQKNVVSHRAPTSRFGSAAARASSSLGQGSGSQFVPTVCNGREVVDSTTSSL

`CCCCN1Cc2cc(OCc3c(-c4ccccc4)cc(C)nc3C)ccc2C1=O` [Example 1, 2-butyl-5-((2,6-dimethyl-4-phenylpyridin-3-yl)methoxy)isoindolin-1-one] and `CCN1Cc2cc(OCc3c(-c4ccccc4)cc(C)nc3C)ccc2C1=O` [Example 11, 5-(2,6-Dimethyl-4-phenyl-pyridin-3-ylmethoxy)-2-ethyl-2,3-dihydroisoindol-1-one] cannot be ordered by EC50: less than 500 nM for the first, less than 500 nM for the second.

`Cc1cc(-c2ccccc2)c(COc2ccc3c(c2)CN(CCOC(F)(F)F)C3=O)c(C)n1` [Example 2, 5-((2,6-dimethyl-4-phenylpyridin-3-yl)methoxy)-2-(2-(trifluoromethoxy)ethyl)isoindolin-1-one] and `Cc1cc(-c2ccccc2)c(COc2ccc3c(c2)CN(CCOC(F)(F)F)C3=O)c(C)[n+]1[O-]` [Example 44, 2,6-dimethyl-3-((1-oxo-2-(2-(trifluoromethoxy)ethyl)-isoindolin-5-yloxy)-methyl)-4-phenylpyridine 1-oxide] cannot be ordered by EC50: less than 500 nM for the first, less than 500 nM for the second.

First: CCCN1Cc2cc(OCc3cnccc3Oc3ccccc3)ccc2C1=O [Example 3, 5-((4-phenoxypyridin-3-yl)methoxy)-2-propylisoindolin-1-one]
Second: CCCN1Cc2cc(OCc3cnccc3-c3ccccc3)ccc2C1=O [Example 6, 5-(4-Phenyl-pyridin-3-ylmethoxy)-2-propyl-2,3-dihydro-isoindol-1-one]
The EC50 of the first is higher: 500 to 2000 nM for the first, less than 500 nM for the second. The second is the more potent here.

`CCCCN1Cc2cc(OCc3c(-c4ccccc4)ccnc3Cl)ccc2C1=O` [Example 4, 2-butyl-5-((2-chloro-4-phenylpyridin-3-yl)methoxy)isoindolin-1-one] and `CCCCN1Cc2cc(OCc3c(I)ccnc3Cl)ccc2C1=O` [Example 5, 2-butyl-5-((2-chloro-4-iodopyridin-3-yl)methoxy)isoindolin-1-one] cannot be ordered by EC50: less than 500 nM for the first, less than 500 nM for the second.

`O=C1c2ccc(OCc3cnccc3-c3ccccc3)cc2CN1CCOC(F)(F)F` [Example 7, 5-(4-Phenyl-pyridin-3-ylmethoxy)-2-(2-trifluoromethoxy-ethyl)-2,3-dihydro-isoindol-1-one] and `CCCCN1Cc2cc(NCc3cnccc3-c3ccccc3)ccc2C1=O` [Example 15, 2-butyl-5-((4-phenylpyridin-3-yl)methylamino)isoindolin-1-one] cannot be ordered by EC50: less than 500 nM for the first, less than 500 nM for the second.

First: CCCN1Cc2cc(OCc3cnccc3NC(=O)OC(C)(C)C)ccc2C1=O [Example 8, [3-(1-oxo-2-propyl-2,3-dihydro-1H-isoindol-5-yloxymethyl)-pyridin-4-yl]-carbamic acid tert-butyl ester]
Second: CCCCN1Cc2cc(NCc3cnccc3NC(=O)C(C)(C)C)ccc2C1=O [Example 43, N-(3-((2-butyl-1-oxoisoindolin-5-ylamino)methyl)pyridin-4-yl)pivalamide]
The EC50 of the first is higher: 2000 to 10000 nM for the first, 500 to 2000 nM for the second.

`CCCCN1Cc2cc(NCc3c(-c4ccccc4)cc(C)nc3C)ccc2C1=O` [Example 13, 2-butyl-5-((2,6-dimethyl-4-phenylpyridin-3-yl)methylamino)isoindolin-1-one] and `CCCCN1Cc2cc(NCc3cnccc3Oc3ccccc3)ccc2C1=O` [Example 16, 2-butyl-5-((4-phenoxypyridin-3-yl)methylamino)isoindolin-1-one] cannot be ordered by EC50: less than 500 nM for the first, less than 500 nM for the second.

`CCCCN1Cc2cc(NCc3cnccc3C(F)(F)F)ccc2C1=O` [Example 14, 2-butyl-5-((4-(trifluoromethyl)pyridin-3-yl)methylamino)isoindolin-1-one] and `CCCCN1Cc2cc(NCc3c(C(F)(F)F)ccnc3Cl)ccc2C1=O` [Example 17, 2-butyl-5-((2-chloro-4-(trifluoromethyl)pyridin-3-yl)methylamino)-isoindolin-1-one] cannot be ordered by EC50: less than 500 nM for the first, less than 500 nM for the second.

First: CCCCN1Cc2cc(NCc3cnccc3Nc3ccccc3)ccc2C1=O [Example 19, 2-butyl-5-((4-(phenylamino)pyridin-3-yl)methylamino)isoindolin-1-one]
Second: CCCCN1Cc2cc(NCc3cnccc3NCc3ccccc3)ccc2C1=O [Example 42, 5-((4-(benzylamino)pyridin-3-yl)methylamino)-2-butylisoindolin-1-one]
The EC50 of the first is lower: 500 to 2000 nM for the first, 2000 to 10000 nM for the second. The first is the more potent here.

`CCCCN1Cc2cc(NCc3cnccc3-c3ccc(C#N)cc3)ccc2C1=O` [Example 20, 4-(3-((2-butyl-1-oxoisoindolin-5-ylamino)methyl)pyridin-4-yl)benzonitrile] and `CCCCN1Cc2cc(NCc3cnccc3-c3ccc(C(F)(F)F)cc3)ccc2C1=O` [Example 21, 2-butyl-5-((4-(4-(trifluoromethyl)phenyl)pyridin-3-yl)methylamino)-isoindolin-1-one] cannot be ordered by EC50: less than 500 nM for the first, less than 500 nM for the second.

`CCCCN1Cc2cc(NCc3cccnc3)ccc2C1=O` [Example 22, 2-butyl-5-[(pyridin-3-ylmethyl)amino]-2,3-dihydro-1H-isoindol-1-one] and `CCCCN1Cc2cc(NCc3cccnc3Cl)ccc2C1=O` [Example 38, 2-butyl-5-{[(2-chloropyridin-3-yl)methyl]amino}-2,3-dihydro-1H-isoindol-1-one] fall in the same range of EC50: 2000 to 10000 nM for the first, 2000 to 10000 nM for the second.

`Cc1cc(-c2ccccc2)c(CNc2cc(Cl)c3c(c2)CN(C2CC2)C3=O)c(C)n1` [Example 23, 7-chloro-2-cyclopropyl-5-{[(2,6-dimethyl-4-phenylpyridin-3-yl)methyl]amino}-2,3-dihydro-1H-isoindol-1-one] and `O=C1c2c(Cl)cc(NCc3c(C(F)(F)F)ccnc3Cl)cc2CN1C1CC1` [Example 24, 7-chloro-5-({[2-chloro-4-(trifluoromethyl)pyridin-3-yl]methyl}amino)-2-cyclopropyl-2,3-dihydro-1H-isoindol-1-one] cannot be ordered by EC50: less than 500 nM for the first, less than 500 nM for the second.

First: CCCCN1Cc2cc(NCc3cnccc3N3CCOCC3)ccc2C1=O [Example 25, 2-butyl-5-({[4-(morpholin-4-yl)pyridin-3-yl]methyl}amino)-2,3-dihydro-1H-isoindol-1-one]
Second: CCCCN1Cc2cc(NCc3cnccc3N3CCN(C)CC3)ccc2C1=O [Example 26, 2-butyl-5-({[4-(4-methylpiperazin-1-yl)pyridin-3-yl]methyl}amino)-2,3-dihydro-1H-isoindol-1-one]
The EC50 of the first is lower: 500 to 2000 nM for the first, 2000 to 10000 nM for the second. The first is the more potent here.

First: CCCCN1Cc2cc(NCc3c(C)ccnc3Cl)ccc2C1=O [Example 33, 2-butyl-5-{[(2-chloro-4-methylpyridin-3-yl)methyl]amino}-2,3-dihydro-1H-isoindol-1-one]
Second: CCCCN1Cc2cc(NCc3c(Cl)ccnc3Cl)ccc2C1=O [Example 35, 2-butyl-5-{[(2,4-dichloropyridin-3-yl)methyl]amino}-2,3-dihydro-1H-isoindol-1-one]
The EC50 of the first is higher: 500 to 2000 nM for the first, less than 500 nM for the second.

`CCCCN1Cc2cc(NCc3ccc(Br)nc3Cl)ccc2C1=O` [Example 34, 5-{[(6-bromo-2-chloropyridin-3-yl)methyl]amino}-2-butyl-2,3-dihydro-1H-isoindol-1-one] and `CCCCN1Cc2cc(NCc3ccc(OC)nc3Cl)ccc2C1=O` [Example 37, 2-butyl-5-{[(2-chloro-6-methoxypyridin-3-yl)methyl]amino}-2,3-dihydro-1H-isoindol-1-one] fall in the same range of EC50: 500 to 2000 nM for the first, 500 to 2000 nM for the second.

`CCCCN1Cc2cc(NCc3ccc(Cl)nc3OC)ccc2C1=O` [Example 36, 2-butyl-5-{[(6-chloro-2-methoxypyridin-3-yl)methyl]amino}-2,3-dihydro-1H-isoindol-1-one] and `COCCN1Cc2cc(NCc3c(C(F)(F)F)ccnc3Cl)cc(C)c2C1=O` [Example 39] fall in the same range of EC50: 500 to 2000 nM for the first, 500 to 2000 nM for the second.

— patent publication US8664214B2, “Small molecule potentiators of metabotropic glutamate receptors I” (AbbVie Deutschland GmbH & Co. KG, priority 2010, dated 2014)
